How the values were obtained:
PMNs = settings: Ruf and Patscheke, 1995; cited from earlier work
TNF-stimulated PMNs = settings: Loike et al., 1991; cited from earlier work
[1] = test system: M1 protein-induced release of HBP from PMNs in human blood; settings: M1 protein 1 μg/ml, 30 min 37° C., FIG. 2 and FIG. 5B
Method: HBP release. 100 μl human blood were diluted in PBS to a final volume of 1.0 ml and incubated with various PMNs-activating components for 30 min at 37° C. Cells were centrifuged (300×g for 15 min) and the supernatant was analyzed by sandwich ELISA. In order to quantify the total amount of HBP in blood, cells were lysed with 0.02% (v/v) Triton X-100, and pelleted as described above.

[2] = test system: mice of the C57BL/6 strain
[3] = test system: thrombin-induced coagulation of normal plasma; assay: Clotting assay (thrombin clotting time); type: biochemical; settings: human plasma, peptides 100 μg/ml, 15 min 37° C., FIG. 5A
Method: Clotting assay—The thrombin clotting time (TCT) was measured in a coagulometer (Amelung, Lemgo, Germany). Samples of 200 μl human citrate-treated plasma were incubated with 4 μl of peptide H-2395 or H-2940 (5 mg/ml) for 15 min at 37° C. Clotting was initiated by adding 100 μl of the TCT reagent (Sigma Chemicals, St. Louis, Mo.).

[4] = test system: thrombin-induced coagulation of normal plasma; settings: Laudano and Doolittle, 1980; cited from earlier work
[5] = test system: S. pyogenes AP1 bacteria infected mice; type: in vivo, mouse; settings: s.c. AP1 bacteria with 400 μg peptide, i.v. peptide after 30 min, lungs six hours after infection, scanning electron microscopy
[6] = test system: purified PMNs in a mixture of plasma and M1 protein; assay: M1 protein-induced PMN aggregation, scanning electron microscopy; type: cell-based, human
Method: Cell culture, neutrophil isolation, and stimulation of cells. Human PMNs were isolated from fresh heparinized blood of healthy volunteers using NIM, a single step density gradient medium, according to the instructions supplied by the manufacture. PMNs were counted with a hemocytometer, resuspended in MEM medium at 10^7 cells/ml and maintained on rotation in this medium at room temperature until use. All experiments on isolated PMNs were performed in Na-medium and initiated within 1 h of PMN isolation. Neutrophilic proteinase release was induced by PMN activation through antibody cross-linking of CD11 b/CD18 as described previously (Gautam et al., 2000, J. Exp. Med., 191, 1829-1839).
Scanning electron microscopy—Probes were gently applied to Millipore filters (Waters Corporation, Milford). Samples were then sucked down to the filters by a wet filter paper lying underneath. The filters were fixed in 2% (v/v) glutaraldehyde, 0.1 M sodium cacodylate, 0.1 M sucrose, pH 7.2 for 1 h at 4° C., and washed with 0.15 M cacodylate, pH 7.2. The filters were postfixed with 1% (w/v) osmium tetroxide, 0.15 M sodium cacodylate, pH 7.2, for 1 h at 4° C., washed, and stored in cacodylate buffer. […]

[7] = M1 protein 15 μg/animal with peptide 400 μg/animal i.v., 30 min

**Q.** Which results are given for “Gly-Pro-Arg-Pro (GPRP) [peptide derived from the NH2-terminal region of the Aα chain of fibrinogen, used as β2 integrin antagonist]”?
**A.** platelet-induced activation of PMNs (PMNs): inhibited; adherence of TNF-stimulated PMNs to fibrinogen-coated surfaces (TNF-stimulated PMNs): block adherence; effect on M1 protein-induced release of HBP [1]: blocked the mobilization of HT3P by M1 protein in a dose dependent manner; M1 protein induced lung lesions (hemorrhage and tissue destruction), light microscopy [2, 7]: almost completely prevented; M1 protein-caused lung damage, scanning electron microscopy [2, 7]: contained no precipitates; ratio of lung area containing protein aggregates versus total lung area ([2]; M1 protein plus peptide i.v., six lung sections per animal, electron microscopy): 6±2%; thrombin-induced coagulation / clotting time [3]: completely blocked thrombin-induced coagulation; clot formation [4]: prevents clot formation; lung damage in infected mice [5]: much less affected; M1 protein-induced PMN aggregation [6]: inhibited the aggregation
